We go through eight compounds from patent US20130204017A1, “GLYCERYL ASCORBIC ACID ACYLATED DERIVATIVE OR ITS SALT, PRODUCTION METHOD THEREOF, AND COSMETICS” (SEIWA KASEI COMPANY, LIMITED, priority 2012, published 2013).

Data set [1] is described as follows: In vivo moisturizing test (stratum corneum water content, forearm). To be noted: 5 g in 100 mL water, pH 7, 0.3 mL on forearm, 10 subjects. As for the experimental part:
(§1) An in vitro moisturizing test and an in vivo moisturizing test of the glyceryl ascorbic acid acylated derivatives of Examples 1 to 6 were carried out according to the following manner. For comparison, sodium ascorbate, magnesium ascorbyl phosphate, glucosyl ascorbic acid, 3-O-glyceryl ascorbic acid, 2-O-glyceryl ascorbic acid and 3-O-cetyl ascorbic acid were used.
Each test sample (5 g) was dissolved in 100 mL of water, and pH thereof was adjusted to 7 with a dilute sodium hydroxide aqueous solution or a dilute hydrochloric acid aqueous solution to prepare a sample solution. A paper filter of 1 cm×1 cm was placed on a forearm portion and 0.3 mL of the prepared sample solution was applied on this, and covered and fixed by a polyamide film. Then, 3 hours and 8 hours after, the stratum corneum water content at the sample-applied portion was measured using CORNEOMETER CM825 (manufactured by Integral Corporation). The test was carried out with 10 subjects, and evaluated according to the following criterion (evaluation standard).
3: Stratum corneum water content increased by 15% or more, based on the water content before sample application
2: Stratum corneum water content increased by 0 to less than 15%, based on the water content before sample application
1: There was no change or there was a reduction in stratum corneum water content, before and after sample application.
Based on the evaluation results, classification was set as described below.
◯: Total points of 10 subjects is 25 or more
Δ: Total points of 10 subjects is 16 to 24
x: Total points of 10 subjects is 15 or less

Data set [2] deals with Normal human dermal fibroblasts. The experiment in a line: Collagen production evaluation test (Sircol collagen assay). In kind it is cell-based. Particulars: sample 100 μM, cultured 48 hours; for activity at 100 µM: Homo sapiens, Fibroblast, read-out: Collagen production promoting effect (collagen production amount, control group is 100%). As for the experimental part: The collagen production promoting effects of the glyceryl ascorbic acid acylated derivatives of the present invention were evaluated, according to the following procedure. As comparison, arbutin, ascorbic acid, sodium ascorbate, magnesium ascorbyl phosphate, glucosyl ascorbic acid, 3-O-glyceryl ascorbic acid and 2-O-glyceryl ascorbic acid were used like in Test Example 1.
Normal human dermal fibroblasts were regulated with a 10% (v/v) fetal bovine serum (manufactured by Invitrogen)-containing D-MEM so as to give a cell density of 2.5×10^4 cells/well, then, pre-incubation for 24 hours was performed on a 96-well plate. After the medium was removed, a sample regulated with a 5% (v/v) fetal bovine serum-containing D-MEM to a concentration of 100 μM was added to each well, then, cultured for 48 hours at 37° C. and 5% CO2. After completion of culturing, the amount of free collagen was measured using Sircol collagen assay kit (manufactured by Biocolor).
The collagen production amount in applying a sample at a concentration of 100 μM is obtained as % value when the control group is 100%, and the results are shown in Table 4 based on the following standard.

A short description of data set [3]: In vitro moisturizing test (amount of retained water). In kind it is physicochemical. Particulars: 25° C., 65% RH to equilibrium, then 25° C., 20% RH for 24 hours. As to the method: as §1
A sample shown later was dried, and the dried sample was spread in an amount of about 0.4 g (this weight is represented by W0) on the bottom of a weighing bottle (diameter: 3.6 cm, height excluding lid: 1.8 cm) so as to give uniform thickness. The sample contained in the weighing bottle was allowed to stand still in a constant humidity and constant temperature vessel (ENVIROS KCL-1000, EYELA) under environments of 25° C. and 65% RH. The weight was measured periodically, waiting until sufficient moisture absorption to attain equilibrium of weight increase (about 48 hours). Thereafter, the sample was transferred to under environments of 25° C. and 20% RH (in sealed vessel containing a saturated CH3COOK aqueous solution filled in the bottom part). From the weight after 24 hours (this weight is represented by W1), the amount of retained water per 1 g of the dried sample was calculated according to the following formula.
From the water amount thus calculated, the moisturizing effect was judged based on the following judging criterion, and the results are shown in Table 8.
Δ: 15 mg or more and less than 35 mg

A further data set concerns B16 melanoma 4A5 cell. The data set can be described thus: Melanin production suppressing evaluation test (theophylline-induced melanine production). It is filed as cell-based, mouse. To be noted: sample at a concentration of 100 μl or less; 0.2 mM theophylline; culturing 3 days. As to the method: As a test for a whitening effect, evaluation of the action of B16 melanoma 4A5 cell on theophylline-induced melanine production was carried out on a glyceryl ascorbic acid acylated derivative of the present invention, according to the following procedure. The same evaluations were carried out also on arbutin, ascorbic acid, sodium ascorbate, magnesium ascorbyl phosphate, glucosyl ascorbic acid, and 3-O-glyceryl ascorbic acid and 2-O-glyceryl ascorbic acid obtained in the Synthesis Examples mentioned above, as comparison.
(1) B16 mouse melanoma 4A5 strain was sowed onto a 48-well plate at a cell density of 2.0×10^4 cells/well. (2) Culturing was performed for 24 hours with Dulbecco's Modified Eagle's medium (manufactured by SIGMA. Hereinafter, abbreviated as D-MEM) containing 10% fetal bovine serum (manufactured by Roshe Diagnostics). Then, it was changed to 0.2 mM theophylline and a 10% fetal bovine serum-containing D-MEM which contains a sample of given concentration. (3) After culturing for 3 days in the co-existence of a sample, the medium was removed using an aspirator. Then, after distilled water was added, cells were broken by an ultrasonic wave. (4) Thereafter, the amount of protein was determined using BCA protein assay kit (manufactured by PIERCE), and the produced amount of melanine was measured by an alkali solubilizing method described later. To the cell-destructed solution was added sodium hydroxide so as to give a final concentration of 2 mol/L and the mixture was dissolved by heating (60° C., 15 minutes), then, the absorbance at 450 nm was measured using a micro plate reader. The melanine amount was calculated from a calibration curve made using synthetic melanine (SIGMA) as a standard. The melanine amount per unit protein was calculated by dividing the melanine amount by the protein amount. (5) The melanine production suppressing rate was calculated according to the following formula.
Melanine production suppressing rate(%)=[1−(A−B)/(C−B)]×100
[wherein, A represents the melanine amount per unit protein (g/g) in adding a sample, B represents the melanine amount per unit protein (g/g) in the normal group, and C represents the melanine amount per unit protein (g/g) in the control group.]
The normal group means the case where neither theophylline nor sample was added.(that is; theophylline(−) and sample(−))
The control group means the case where neither sample was not added but theophylline was added.(that is; theophylline (+) and sample(−))
In the following Tables, the melanine production suppressing rate in applying a sample at a concentration of […] or less is expressed as described below.

The nature of data set [4]: Stability test: odor and color change of 2% aqueous solution stored at 50° C. In kind it is physicochemical. To be noted: pH7, ten panelists. As for the experimental part: Using 2-O-glyceryl-6-O-octanoyl ascorbic acid obtained in Example 2 and 2-O-glyceryl-6-O-octadecanoyl ascorbic acid obtained in Example 9, an evaluation was made on the stability of odor and color change when stored at 50° C. for 4 weeks, according to the following procedure. For comparison, magnesium ascorbyl phosphate, ascorbic acid and 3-O-glyceryl ascorbic acid were used.
Aqueous solutions (2%) of various test samples were adjusted to pH7 with a dilute sodium hydroxide aqueous solution or a dilute hydrochloric acid aqueous solution, and charged into 50 mL screw tubes. The tubes were sealed and stored at 50° C. for 4 weeks. The odor and degree of color change immediately after preparation, after storage for two weeks and after storage for four weeks were evaluated by ten panelists based on the following methods and according to the following criterion.
3: almost no change as compared with that immediately after preparation
2: color change is observed as compared with that immediately after preparation
1: intense color change is observed as compared with that immediately after preparation
Based on the evaluation results, classification was conducted as shown below.
◯: total point of 10 panelists is 25 or more
Δ: total point of 10 panelists is 16 to 24
x: total point of 10 panelists is 15 or less

Where [5] appears, read: storage period 0 (immediately after preparation).

As to `O=C1O[C@H]([C@@H](O)CO)C(O)=C1OCC(O)CO` (some centres unmarked) [2-O-glyceryl ascorbic acid, reference compound], in data set [1], the “in vivo moisturizing (stratum corneum water content) after 3 hours” value (shortened to “in vivo moisturizing … after 3 hours”) is “Δ (Total points of 10 subjects is 16 to 24)” and the “in vivo moisturizing (stratum corneum water content) after 8 hours” value (from here on “in vivo moisturizing … after 8 hours”) is reported as “Δ (Total points of 10 subjects is 16 to 24)”. In data set [2], the activity at 100 µM was 100 to 200%. The “in vitro moisturizing effect (amount of retained water per 1 g of the dried sample)” value in data set [3] is “◯ (35 mg or more)”. Moreover, the “Whitening effect (melanine production suppressing rate)” value (“Whitening effect” for short) in the data set with B16 melanoma 4A5 cell was “Δ (Less than 30%)”.

Regarding `CCCC(=O)OC[C@H](O)[C@H]1OC(=O)C(OCC(O)CO)=C1O` (some centres unmarked) [Example 1, 2-O-glyceryl-6-O-butanoyl ascorbic acid], in data set [1], the “in vivo moisturizing … after 3 hours” value is on record as “◯ (Total points of 10 subjects is 25 or more)” and the “in vivo moisturizing … after 8 hours” value is given as “◯ (Total points of 10 subjects is 25 or more)”. Further, the activity at 100 µM in data set [2] lay in the range of 100 to 200%. In the data set with B16 melanoma 4A5 cell, the “Whitening effect” value was “◯ (30 to 49%)”.

`CCCCCCCC(=O)OC[C@H](O)[C@H]1OC(=O)C(OCC(O)CO)=C1O` (some centres unmarked) [Example 2, 2-O-glyceryl-6-O-octanoyl ascorbic acid]: in data set [1], the “in vivo moisturizing … after 3 hours” value was “◯ (Total points of 10 subjects is 25 or more)” and the “in vivo moisturizing … after 8 hours” value was “◯ (Total points of 10 subjects is 25 or more)”. In addition, the activity at 100 µM in data set [2] is 100 to 200%. For the same compound, in data set [4] (storage 2 weeks at 50° C.), the Color change entry is on record as “◯ (total point of 10 panelists is 25 or more)” and the Odor result is “◯ (total point of 10 panelists is 25 or more)”. In data set [4] (storage 4 weeks at 50° C.), the Color change result is “◯ (total point of 10 panelists is 25 or more)” and the Odor entry is “◯ (total point of 10 panelists is 25 or more)”. Moreover, in data set [4] (setting [5]), the Color change entry is “◯ (total point of 10 panelists is 25 or more)” and the Odor result is listed as “◯ (total point of 10 panelists is 25 or more)”. Also, the “Whitening effect” value in the data set with B16 melanoma 4A5 cell is on record as “⊚ (50% or more)”.

In the case of `CCCCCCCCCCCCCCCC(=O)OC[C@H](O)[C@H]1OC(=O)C(OCC(O)CO)=C1O` (some centres unmarked) [Example 3, 2-O-glyceryl-6-O-hexadecanoyl ascorbic acid], in data set [1], the “in vivo moisturizing … after 3 hours” value is recorded as “◯ (Total points of 10 subjects is 25 or more)” and the “in vivo moisturizing … after 8 hours” value was “◯ (Total points of 10 subjects is 25 or more)”. For the same compound, the activity at 100 µM in data set [2] lay within 100 to 200%. Also, in the data set on B16 melanoma 4A5 cell, the “Whitening effect” value was “⊚ (50% or more)”.

As for `CCCCCCCC(=O)OCC(O)COC1=C(O)[C@@H]([C@@H](O)COC(=O)CCCCCCC)OC1=O` (some centres unmarked) [Example 4, 2-O-(3′-O-octanoylglyceryl)-6-O-octanoyl ascorbic acid], in data set [1], the “in vivo moisturizing … after 3 hours” value is listed as “◯ (Total points of 10 subjects is 25 or more)” and the “in vivo moisturizing … after 8 hours” value is given as “◯ (Total points of 10 subjects is 25 or more)”. The activity at 100 µM in data set [2] fell in the range of 100 to 200%. Also, the “Whitening effect” value with B16 melanoma 4A5 cell is recorded as “⊚ (50% or more)”.

Consider `CCCCCCCCCCCC(=O)OC[C@H](O)[C@H]1OC(=O)C(OCC(O)CO)=C1O` (some centres unmarked) [Example 5, 2-O-glyceryl-6-O-dodecanoyl ascorbic acid], for which, in data set [1], the “in vivo moisturizing … after 3 hours” value is on record as “◯ (Total points of 10 subjects is 25 or more)” and the “in vivo moisturizing … after 8 hours” value is “◯ (Total points of 10 subjects is 25 or more)”. For the same compound, the activity at 100 µM in data set [2] was 100 to 200%. Further, in the data set on B16 melanoma 4A5 cell, the “Whitening effect” value is given as “⊚ (50% or more)”.

On to `CCCCC(CC)C(=O)OC[C@H](O)[C@H]1OC(=O)C(OCC(O)CO)=C1O` (some centres unmarked) [Example 6, 2-O-glyceryl-6-O-(2-ethylhexanoyl) ascorbic acid], for which, in data set [1], the “in vivo moisturizing … after 3 hours” value is listed as “◯ (Total points of 10 subjects is 25 or more)” and the “in vivo moisturizing … after 8 hours” value is “◯ (Total points of 10 subjects is 25 or more)”. Further, the activity at 100 µM in data set [2] was 100 to 200%. Moreover, the “Whitening effect” value with B16 melanoma 4A5 cell is reported as “⊚ (50% or more)”.

As to `O=C1O[C@H]([C@@H](O)CO)C(O)=C1O[C@H]1O[C@H](CO)[C@@H](O)[C@H](O)[C@H]1O` [Glucosyl ascorbic acid, reference compound], the “Collagen production promoting effect (collagen production amount, control group is 100%)” value in data set [2] is given as “+ (100 to 200%)”. The “in vitro moisturizing effect (amount of retained water per 1 g of the dried sample)” value in data set [3] was “Δ (15 mg or more and less than 35 mg)”. The “Whitening effect” value in the data set with B16 melanoma 4A5 cell was “Δ (Less than 30%)”.
